Publication PMC7576608, “Mechanisms of telomerase inhibition by oxidized and therapeutic dNTPs” (Nature Communications, 2020)

These compounds were tested on telomerase (assay: Direct telomerase assay in the absence or presence of POT1-TPP1 (processivity R1/2)). Conditions: 2-OH-dATP replaced dATP.
Assay type: biochemical, human
Excerpt: Next we tested whether the telomerase processivity factor POT1–TPP1 modulates modified dNTP inhibition of telomerase. POT1 binds to the telomeric ssDNA overhang, requiring the minimum sequence of 5′-[…]-3′[38]. Inclusion of POT1-binding partner TPP1, increases the binding affinity for telomeric DNA ten-fold compared to POT1 alone. POT1–TPP1 recruits telomerase to telomeres in vivo[39], and greatly increases telomerase repeat processivity. Therefore, we reasoned that POT1–TPP1 may overcome inhibition by the modified dNTPs and enhance telomerase processivity. We conducted telomerase extension reactions with radiolabeled primer in the presence of POT1–TPP1, and used a primer with a single mutation ([…]; underlined G to C mutation)[40] to ensure POT1–TPP1 is positioned at the 5′ portion of the primer (Fig. 5). This provides a homogenous substrate for telomerase extension.
For these reactions, we replaced the natural dNTP with the modified dNTP analog, while the other dNTPs remained at cellular relevant concentrations.
Direct telomerase assays were conducted in the absence or presence of 500 nM POT1 and 500 nM TPP1, as indicated, and 5 nM ^32P-end labeled primer ([…]) designed to position POT1 at the 10 nt primer 5′ end. Reactions contained cellular-concentration dNTPs (lanes 1 and 2), except when the natural dNTP was substituted with the oxidized dNTP a or therapeutic dNTP b analog (lanes 3–8), as indicated. […] Letters on the right indicate template base; P indicates unextended 18-mer primer. c Processivity was calculated on the basis of total products normalized to loading control. Images are representative of, and data are shown as mean ± s.d. from 3 to 5 independent experiments. Source data are provided as a Source Data file.
The reactions were started by the addition of 3 μl of immunopurified telomerase eluent, incubated at 37 °C for 1 h, then terminated with 2 μl of […] and heat inactivated at 65 °C for 20 min. An equal volume of loading buffer (94% formamide, 0.1× TBE, 0.1% bromophenol blue, 0.1% xylene cyanol) was added to the reaction eluent. The samples were heat denatured for 10 min at 100 °C and loaded onto a 14% denaturing acrylamide gel (7 M urea, 1× TBE) and electrophoresed for 90 min at constant 38 W. Samples were imaged using a Typhoon phosphorimager (GE Healthcare). Percent primer extension was calculated with ImageQuant TL 8.2 by measuring the intensity of each product band and dividing by the total radioactivity in the lane or total products, as indicated in the figure legends.
The processivity was calculated as described[40],[67]. Repeat processivity from the direct telomerase extension assays was calculated as R1/2 (equivalent to the half-time for decay in an exponential time course), which represents the median length of DNA product formed, expressed in terms of number of telomere repeats. First, the total volume counts for each product band extend by one or more telomere repeats were obtained using Image Quant TL. The volume counts were then normalized by dividing by the number of radiolabeled guanosines incorporated into the extended products based on the number of repeats added, termed corrected volume (corr vol). The “percent left behind” (%LB) was calculated for each product band by summing the counts for that product band and for every product band below (shorter products), divided by the total counts for the lane, and then multiplied by 100. The natural log of (100−%LB) was calculated and then plotted vs. repeat number for each product length. A linear regression line was fit to the data to determine the slope of the line.

Structure (SMILES) | Fold enhancement of repeat processivity by POT1-TPP1 [fold]
Nc1nc(O)nc2c1ncn2C1CC(O)C(COP(=O)(O)OP(=O)(O)OP(=O)(O)O)O1 (stereo not drawn) [2-OH-dATP] | 5

Same assay, conditions: analog substituted for its natural dNTP

Structure (SMILES) | Effect of POT1-TPP1 on telomerase in presence of analog (in words)
Nc1nc2c(ncn2C2CC(O)C(COP(=O)(O)OP(=O)(O)OP(=O)(O)O)O2)c(=S)[nH]1 (stereo not drawn) [6-thio-dGTP] | failed to stimulate telomerase
Nc1ncnc2c1[nH]c(=O)n2C1CC(O)C(COP(=O)(O)OP(=O)(O)OP(=O)(O)O)O1 (stereo not drawn) [8-oxo-dATP] | some POT1–TPP1 stimulation
Nc1nc2c([nH]c(=O)n2C2CC(O)C(COP(=O)(O)OP(=O)(O)OP(=O)(O)O)O2)c(=O)[nH]1 (stereo not drawn) [8-oxo-dGTP] | unable to overcome the chain termination
Cc1cn([C@H]2C[C@H](N=[N+]=[N-])[C@@H](CO[P@](=O)(O)O[P@](=O)(O)OP(=O)(O)O)O2)c(=O)[nH]c1=O [AZT-TP] | failed to stimulate telomerase processivity
O=c1[nH]cnc2c1ncn2C1CCC(COP(=O)(O)OP(=O)(O)OP(=O)(O)O)O1 (stereo not drawn) [ddITP] | failed to stimulate telomerase processivity
